Measurements taken from article PMC5431558, “Expression proteomics study to determine metallodrug targets and optimal drug combinations” (Scientific Reports, 2017).

Molecular target: T1, MAT2A (S-adenosylmethionine synthase isoform type-2) (Homo sapiens, UniProt P31153)
T1 construct: Recombinant human MAT2A (Addgene plasmid #53648), expressed in E. coli BL21 (DE3) Rosetta
Experiment: MAT2A enzymatic assay with pre-incubation, phosphate colorimetric readout
Type: biochemical

T1 sequence (P31153 whole entry, canonical isoform): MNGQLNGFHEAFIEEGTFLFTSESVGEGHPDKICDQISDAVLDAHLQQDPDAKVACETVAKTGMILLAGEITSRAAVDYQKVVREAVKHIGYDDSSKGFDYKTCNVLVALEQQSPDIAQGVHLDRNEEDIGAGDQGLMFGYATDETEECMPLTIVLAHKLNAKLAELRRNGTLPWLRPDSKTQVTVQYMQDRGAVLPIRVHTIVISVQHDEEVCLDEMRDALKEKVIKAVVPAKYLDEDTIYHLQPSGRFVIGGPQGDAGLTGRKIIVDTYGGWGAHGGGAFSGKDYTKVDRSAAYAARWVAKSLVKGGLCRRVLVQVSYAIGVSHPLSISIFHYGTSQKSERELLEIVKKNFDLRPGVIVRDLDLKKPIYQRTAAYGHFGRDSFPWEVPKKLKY

C1N2CN3CN1CP(C2)C3.Cc1ccccc1.[Cl][Ru][Cl] [RAPTA-T]
IC50: 107 ± 13 µM
